Molecular target: Phospholipase A2 group IIA
Assay: Concentration required for in vitro inhibitory activity against human type II phospholipase A2

| IC50 [nM] | Compound |
| --- | --- |
| 4090 | CCOC(=O)[C@@]1(Cc2ccccc2)S[C@@H](F)C(C)(C)C1=O |
| 676 | CCOC(=O)[C@@]1(Cc2ccccc2)S[C@H](F)C(C)(C)C1=O |

— BindingDB's records for doi:10.1016/0960-894X(95)00215-F (n/a, 1995)
